Measurements: patent publication US20230114728A1 (Venatorx Pharmaceuticals, Inc., priority 2019, published 2023)
pEC50: −log10 of the molar value.

Biological target: T1, A. baumannii PBP2 (Acinetobacter baumannii, UniProt D0C8Z9)
T1 construct: made in house
T1 sequence (D0C8Z9 1-672): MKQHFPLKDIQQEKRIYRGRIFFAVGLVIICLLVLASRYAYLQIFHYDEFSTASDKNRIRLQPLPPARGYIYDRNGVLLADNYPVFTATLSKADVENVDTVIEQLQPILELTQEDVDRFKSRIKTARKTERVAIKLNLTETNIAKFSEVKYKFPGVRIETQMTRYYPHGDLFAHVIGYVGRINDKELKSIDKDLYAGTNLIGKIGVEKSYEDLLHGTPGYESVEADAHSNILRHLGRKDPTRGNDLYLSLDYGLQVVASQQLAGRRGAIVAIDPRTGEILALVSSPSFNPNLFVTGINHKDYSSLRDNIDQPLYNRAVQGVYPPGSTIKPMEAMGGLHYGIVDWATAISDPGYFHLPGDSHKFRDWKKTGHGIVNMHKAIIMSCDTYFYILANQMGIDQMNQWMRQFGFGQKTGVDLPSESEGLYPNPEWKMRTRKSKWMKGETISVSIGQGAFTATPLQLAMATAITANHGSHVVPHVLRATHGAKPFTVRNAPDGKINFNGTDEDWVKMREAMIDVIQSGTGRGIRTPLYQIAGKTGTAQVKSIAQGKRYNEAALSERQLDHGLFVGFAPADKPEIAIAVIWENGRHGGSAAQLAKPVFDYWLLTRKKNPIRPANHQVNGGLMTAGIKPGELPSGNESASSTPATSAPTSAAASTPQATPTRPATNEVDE
Test: Bocillin-FL fluorescence polarization competition binding assay, A. baumannii PBP2
Conditions: fluorescence polarization competition binding assay using Bocillin-FL; read-out: A. baumannii PBP2 Potency
In short: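 A. baumannii PBP2 (2.5 μM) and PBP3 (0.2 μM) were run in 25 mM Tris pH 8.0 buffer with Tween 20; E. coli PBP3 (1.5 μM) and N. gonorrhoeae PBP2 ([…]) in 50 mM Hepes pH 8.0 buffer.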

O=C(NCCCN1CCN(C(=O)NC(C(=O)N[C@H]2Cc3ccc(F)c(C(=O)O)c3OB2O)c2ncc(O)cc2F)C(=O)C1=O)c1ccc(O)c(O)c1Cl (stereo partly drawn) [Example 3, (3R)-3-(2-(4-(3-(2-chloro-3,4-dihydroxybenzamido)propyl)-2,3-dioxopiperazine-1-carboxamido)-2-(3-fluoro-5-hydroxypyridin-2-yl)acetamido)-7-fluoro-2-hydroxy-3,4-dihydro-2H-benzo[e][1,2]oxaborinine-8-carboxylic acid]
pEC50: < 4.00

CCN1CCN(C(=O)N[C@@H](C(=O)N[C@H]2Cc3cc(Cl)c(F)c(C(=O)O)c3OB2O)c2c(F)cc(O)c(O)c2Cl)C(=O)C1=O [Example 191, (R)-6-chloro-3-((R)-2-(2-chloro-6-fluoro-3,4-dihydroxyphenyl)-2-(4-ethyl-2,3-dioxopiperazine-1-carboxamido)acetamido)-7-fluoro-2-hydroxy-3,4-dihydro-2H-benzo[e][1,2]oxaborinine-8-carboxylic acid]
pEC50: 4.00 to 4.52

CS(=O)(=O)N1CCN(C(=O)N[C@@H](C(=O)N[C@H]2Cc3ccc(F)c(C(=O)O)c3OB2O)c2cc(F)c(O)c(O)c2Cl)C1=O (single isomer, unassigned) [Example 189]
pEC50: < 4.00

NCCCN1CCN(C(=O)N[C@@H](C(=O)N[C@H]2Cc3cc(Cl)c(F)c(C(=O)O)c3OB2O)c2c(F)cc(O)c(O)c2Cl)C(=O)C1=O [Example 190, (R)-3-((R)-2-(4-(3-aminopropyl)-2,3-dioxopiperazine-1-carboxamido)-2-(2-chloro-6-fluoro-3,4-dihydroxyphenyl)acetamido)-6-chloro-7-fluoro-2-hydroxy-3,4-dihydro-2H-benzo[e][1,2]oxaborinine-8-carboxylic acid]
pEC50: < 4.00

CCN1CCN(C(=O)N[C@@H](C(=O)N[C@H]2Cc3cccc(C(=O)O)c3OB2O)c2c(O)cc(O)cc2F)C(=O)C1=O (single isomer, unassigned) [Example 182]
pEC50: < 4.00
